Molecules are shown by their SMILES. ≈ marks a conversion by molar mass, not a printed value. Like-named read-outs stand apart in the source and are kept apart here.

One data set deals with Staph.aureus 853E. Description: Determination of Minimum Inhibitory Concentrations (MIC), agar dilution. The data set is classed as cell-based. Particulars: Staphylococcus aureus. The source says: (§1) Biological testing of a number of compounds of the invention has provided the results shown below;-the test compounds are identified by their Example Numbers: 1. Determination of Minimum Inhibitory Concentrations (MIC)
(§2) Serial two-fold dilutions of freshly prepared test solutions were made into Oxoid No. 1 Nutrient agar with or without added enrichment and poured into petri diches. Plates were inoculated with a multipoint inoculator with inoculum containing approximately 10^5 colony forming units of the organisms shown in the following Tables, all of which organisms are clinical isolates. The MIC, quoted in the Tables as µg/ml, was read after 18 hours incubation at 37°C as the lowest concentration which inhibited growth.. N.T. means not tested.
Background: Agar dilution tests growth on a series of plates holding different concentrations.

The test system of another data set is K. aerogenes 1522E. Described as above. Particulars: Klebsiella aerogenes. The data set is classed as cell-based.
Source text: as §1, §2

A further data set concerns S. marcescens 1324E. The data set is described as above. The data set is classed as cell-based. To be noted: Serratia marcescens.
Source text: as §1, §2

For another data set, the system named is H. influenzae 1184E. The data set is described as above. The data set is classed as cell-based. Particulars: Haemophilus influenzae.
Source text: as §1, §2

A further data set relates to E. cloacae 1321E. Described as above. The data set is classed as cell-based. To be noted: Enterobacter cloacae.
Source text: as §1, §2

A further data set deals with Micrococcus Sp 1810E. Described as above. The format is cell-based. To be noted: SP1810E.
Source text: as §1, §2

For a further data set, the system named is E. coli 851E. The description is as above. The data set is classed as cell-based. Particulars: Escherichia coli.
Source text: as §1, §2

The subject of the next data set is E. cloacae 1051E. Described as above. To be noted: Enterobacter cloacae. The data set is classed as cell-based.
Source text: as §1, §2

Another data set in a line: Toxicity (LD50) in mice. To be noted: mouse, in vivo, ip; administered intraperitoneally to mice.
[1] abbreviates: Staph.aureus 853E, clinical isolate, Oxoid No. 1 Nutrient agar, approximately 10^5 colony forming units, 18 hours at 37°C, read-out: MIC.
The mark [2] stands for this setting: K. aerogenes 1522E, clinical isolate, Oxoid No. 1 Nutrient agar, approximately 10^5 colony forming units, 18 hours at 37°C, read-out: MIC.
The mark [3] stands for this setting: S. marcescens 1324E, clinical isolate, Oxoid No. 1 Nutrient agar, approximately 10^5 colony forming units, 18 hours at 37°C, read-out: MIC.
The mark [4] stands for this setting: H. influenzae 1184E, clinical isolate, Oxoid No. 1 Nutrient agar, approximately 10^5 colony forming units, 18 hours at 37°C, read-out: MIC.
[5] abbreviates: E. cloacae 1321E, clinical isolate, Oxoid No. 1 Nutrient agar, approximately 10^5 colony forming units, 18 hours at 37°C, read-out: MIC.
Where [6] appears, read: Micrococcus Sp 1810E, clinical isolate, Oxoid No. 1 Nutrient agar, approximately 10^5 colony forming units, 18 hours at 37°C, read-out: MIC.
The mark [7] stands for this setting: E. coli 851E, clinical isolate, Oxoid No. 1 Nutrient agar, approximately 10^5 colony forming units, 18 hours at 37°C, read-out: MIC.
Setting [8] is: E. cloacae 1051E, clinical isolate, Oxoid No. 1 Nutrient agar, approximately 10^5 colony forming units, 18 hours at 37°C, read-out: MIC.

For `O=C(O)C1=C(CCO)SC2CC(=O)N12` (racemic) [Example 11, Potassium (5RS)-2-(2-hdroxethyl)pen-2-em-3-carboxylate], the MIC is 0.5 µg/mL with Staph.aureus 853E (setting [1]); 8 µg/mL with K. aerogenes 1522E (setting [2]); 8 µg/mL in the data set on S. marcescens 1324E (setting [3]); 8 µg/mL in the data set on H. influenzae 1184E (setting [4]); 4 µg/mL with E. cloacae 1321E (setting [5]); less than 0.1 µg/mL with Micrococcus Sp 1810E (setting [6]). For the same compound, the MIC with E. coli 851E (setting [7]) is 4 µg/mL; in the data set on E. cloacae 1051E (setting [8]), 8 µg/mL.

With `CC(=O)OCCC1=C(C(=O)O)N2C(=O)CC2S1` (racemic) [Example 13, Potassium (5RS)-2-(2-acetoxethyl)pen-2-em-3-carbolate], the MIC in the data set on Staph.aureus 853E (setting [1]) came out at 0.5 µg/mL; in the data set on K. aerogenes 1522E (setting [2]), 8 µg/mL; in the data set on S. marcescens 1324E (setting [3]), 62 µg/mL; in the data set with E. cloacae 1321E (setting [5]), 2 µg/mL; with Micrococcus Sp 1810E (setting [6]), 0.2 µg/mL; with E. coli 851E (setting [7]), 4 µg/mL. Moreover, the MIC in the data set with E. cloacae 1051E (setting [8]) is 16 µg/mL.

Take `NC(=O)OCCC1=C(C(=O)O)N2C(=O)CC2S1` (racemic) [Example 18, (5RS)-2-(2-Carbamoyloxethyl)pen-2-em-3-carboxlic acid]: the MIC in the data set with Staph.aureus 853E (setting [1]) was less than 0.1 µg/mL; in the data set with K. aerogenes 1522E (setting [2]), 4 µg/mL (≈ 15.5 µM); in the data set on S. marcescens 1324E (setting [3]), 4 µg/mL (≈ 15.5 µM); with H. influenzae 1184E (setting [4]) it was 2 µg/mL (≈ 7.74 µM); with E. cloacae 1321E (setting [5]), 2 µg/mL (≈ 7.74 µM); in the data set on Micrococcus Sp 1810E (setting [6]), less than 0.1 µg/mL. The MIC in the data set with E. coli 851E (setting [7]) is 2 µg/mL (≈ 7.74 µM); in the data set with E. cloacae 1051E (setting [8]) it was 8 µg/mL (≈ 31 µM).

Turning to `CNC(=O)OCCC1=C(C(=O)O)N2C(=O)CC2S1` (racemic) [Example 21], the MIC in the data set with Staph.aureus 853E (setting [1]) is 0.2 µg/mL (≈ 0.735 µM); in the data set with K. aerogenes 1522E (setting [2]), 4 µg/mL (≈ 14.7 µM); with S. marcescens 1324E (setting [3]) it was 4 µg/mL (≈ 14.7 µM); in the data set on H. influenzae 1184E (setting [4]) it was 4 µg/mL (≈ 14.7 µM); with E. cloacae 1321E (setting [5]), 4 µg/mL (≈ 14.7 µM); in the data set with Micrococcus Sp 1810E (setting [6]), less than 0.1 µg/mL. For the same compound, the figures for the MIC in the data set with E. coli 851E (setting [7]) and in the data set with E. cloacae 1051E (setting [8]) were 4 µg/mL (≈ 14.7 µM) and 31 µg/mL (≈ 114 µM), respectively.

In the case of `CCCCC1=C(C(=O)O)N2C(=O)CC2S1` (racemic) [Example 26, (5RS)2-n-Butylpen-2-em-3-carboxylic acid], the MIC in the data set on Staph.aureus 853E (setting [1]) came out at 0.5 µg/mL (≈ 2.2 µM); in the data set on K. aerogenes 1522E (setting [2]) it was 31 µg/mL (≈ 136 µM); in the data set on S. marcescens 1324E (setting [3]) it was 31 µg/mL (≈ 136 µM); in the data set with H. influenzae 1184E (setting [4]), 4 µg/mL (≈ 17.6 µM); with E. cloacae 1321E (setting [5]), 31 µg/mL (≈ 136 µM); with E. coli 851E (setting [7]), 31 µg/mL (≈ 136 µM). The MIC in the data set on E. cloacae 1051E (setting [8]) came out at 125 µg/mL (≈ 550 µM).

For `CCCC1=C(C(=O)O)N2C(=O)CC2S1` (racemic) [Example 28, (5RS)-2-ProD^ylpen-2-em-3-carboxylic acid], the MIC was less than 0.1 µg/mL in the data set on Staph.aureus 853E (setting [1]); 0.5 µg/mL (≈ 2.34 µM) in the data set on K. aerogenes 1522E (setting [2]); 1 µg/mL (≈ 4.69 µM) in the data set on S. marcescens 1324E (setting [3]); 1 µg/mL (≈ 4.69 µM) in the data set with H. influenzae 1184E (setting [4]); 0.5 µg/mL (≈ 2.34 µM) in the data set with E. cloacae 1321E (setting [5]); less than 0.1 µg/mL with Micrococcus Sp 1810E (setting [6]). Moreover, the MIC was 0.5 µg/mL (≈ 2.34 µM) in the data set on E. coli 851E (setting [7]) and 4 µg/mL (≈ 18.8 µM) with E. cloacae 1051E (setting [8]).

As a reminder, the LD50 is the dose expected to kill half of the subjects tested. A high value points to lower toxicity. As for `CCC1=C(C(=O)[O-])N2C(=O)CC2[S+]1[O-].[K+]` (racemic) [Example 36, Potassium (5RS)-2-ethylpen-2-em-3-carboxylate-1-oxide], the LD50 in the data set “Toxicity (LD50) in mice” was more than 500 mg/kg. Besides, the MIC against Staph.aureus 853E (853E, 18 h) stood at 0.5 µg/mL; against K. aerogenes 1522E (1522E, 18 h), 8 µg/mL; in the data set on S. marcescens 1324E (1324E, 18 h), 8 µg/mL; in the data set with H. influenzae 1184E (1184E, 18 h), 2 µg/mL; against E. cloacae 1321E (1321E, 18 h), 8 µg/mL; with Micrococcus Sp 1810E (Micrococcus, 18 h), 0.1 µg/mL. The MIC against E. coli 851E (851E, 18 h) was determined as 8 µg/mL; against E. cloacae 1051E (1051E, 18 h), 8 µg/mL.

The compound `O=C([O-])C1=C(CCOC2CCCCO2)SC2CC(=O)N12.[K+]` (racemic) [Example 43, Potassium (5RS)-2-[2-(tetrahydropyran-2-yloxy)ethyl]-pen-2-em-3-carboxylate] came in with an LD50 in the data set “Toxicity (LD50) in mice” of more than 500 mg/kg.

For the compound `COCCC1=C(C(=O)[O-])N2C(=O)CC2S1.[Na+]` (racemic) [Example 45, Sodium (5RS)-2-(2-methoxyethyl)pen-2-em-3-carboxylate], the MIC against Staph.aureus 853E (853E, 18 h) was 0.5 µg/mL; with K. aerogenes 1522E (1522E, 18 h), 4 µg/mL; with S. marcescens 1324E (1324E, 18 h) it was 8 µg/mL; in the data set on H. influenzae 1184E (1184E, 18 h), 4 µg/mL; in the data set with E. cloacae 1321E (1321E, 18 h), 2 µg/mL; against Micrococcus Sp 1810E (Micrococcus, 18 h), less than 0.1 µg/mL. Besides, the MIC was found to be 2 µg/mL against E. coli 851E (851E, 18 h) and 8 µg/mL against E. cloacae 1051E (1051E, 18 h).

For the compound `COCC1=C(C(=O)O)N2C(=O)CC2S1` (racemic) [Example 52, Potassium (5RS)-2-methoxymethylen-2-em-3-carboxylate], the MIC was 0.5 µg/mL in the data set with Staph.aureus 853E (setting [1]); 4 µg/mL in the data set with K. aerogenes 1522E (setting [2]); 4 µg/mL in the data set on S. marcescens 1324E (setting [3]); 4 µg/mL in the data set with H. influenzae 1184E (setting [4]); 2 µg/mL with E. cloacae 1321E (setting [5]); 0.2 µg/mL with Micrococcus Sp 1810E (setting [6]). The figures for the MIC in the data set with E. coli 851E (setting [7]) and in the data set with E. cloacae 1051E (setting [8]) were 4 µg/mL and 8 µg/mL, respectively.

As to `O=C(CCl)OCCC1=C(C(=O)[O-])N2C(=O)CC2S1.[K+]` (racemic) [Example 57, Potassium (5RS)-2-[2-(2-chloroacetyl)oxyethyl]pen-2-em-3-carboxylate], the MIC in the data set with Staph.aureus 853E (853E, 18 h) is 0.5 µg/mL; in the data set with K. aerogenes 1522E (1522E, 18 h) it was 8 µg/mL; in the data set on S. marcescens 1324E (1324E, 18 h) it was 8 µg/mL; in the data set with H. influenzae 1184E (1184E, 18 h), 4 µg/mL; against E. cloacae 1321E (1321E, 18 h), 8 µg/mL; against Micrococcus Sp 1810E (Micrococcus, 18 h), 0.2 µg/mL. Moreover, the MIC in the data set on E. coli 851E (851E, 18 h) worked out at 8 µg/mL; against E. cloacae 1051E (1051E, 18 h) it was 16 µg/mL.

Turning to `CC1=C(C(=O)O)N2C(=O)CC2S1` (single isomer, unassigned) [Example 6], the MIC was 1 µg/mL (≈ 5.4 µM) in the data set on Staph.aureus 853E (setting [1]); 16 µg/mL (≈ 86.4 µM) in the data set with K. aerogenes 1522E (setting [2]); 8 µg/mL (≈ 43.2 µM) with S. marcescens 1324E (setting [3]); 4 µg/mL (≈ 21.6 µM) in the data set on H. influenzae 1184E (setting [4]); 8 µg/mL (≈ 43.2 µM) in the data set on E. cloacae 1321E (setting [5]); 0.2 µg/mL (≈ 1.08 µM) in the data set on Micrococcus Sp 1810E (setting [6]). In addition, the MIC in the data set on E. coli 851E (setting [7]) is 8 µg/mL (≈ 43.2 µM); with E. cloacae 1051E (setting [8]), 16 µg/mL (≈ 86.4 µM).

For the origin of these results see patent publication EP0000636A1, “Penem compounds, processes for their preparation, their use in pharmaceutical compositions and azetidinones used in their preparation” (GLAXO GROUP LIMITED, priority 1977, dated 1979).
